Laboratory results from patent US20070225245A1, “Viral vector driven mutant bacterial cytosine deaminase gene and uses thereof” (priority 1998, published 2007).
Converted amounts (≈) assume the structure as drawn.

How the values were obtained:
[1] = system: Intracranial U87MG gliomas; test: Survival, intracranial glioma, HSV and 5-FC; format: in vivo, SCID mice; settings: saline plus 5-FC
Procedure: Two days later, mice were begun on twice daily intraperitoneal injections of saline (1 ml) or 5-FC (500 mg/kg). Mice were followed for survival.
Studies were undertaken to determine the efficacy of the HSV construct, M012, in in vivo murine glioma models. […] The median survival of animals receiving saline plus 5-FC was 34 days. In a similar study with the D54MG intracranial model, median survival of mice injected intratumorally with M012 and administered 5-FC was 40 days, compared to 27 days with M012 plus saline and 19 days with saline and 5-FC (FIG. 14).

[2] = system: Intracranial D54MG Human Gliomas; test: Survival, intracranial glioma, intratumoral Ad and systemic 5-FC; format: in vivo, SCID mice; settings: Table 7; Saline (no virus) + 5-FC
Procedure: U87MG and D54MG cells (5×10^5) were stereotactically injected into the right frontal cortex of SCID mice. Tumors were established for 5 days before intratumoral injection of AdCMVCD (10^8 or 10^9 pfu/mouse). Mice were then treated IP with 5-FC (500 mg/kg bid) on days 2-9 post infection and monitored for survival. Kaplan-Meier survival curves and median and 20% survival values were calculated by standard methods.

[3] = system: intracranial D54MG tumors; test: Intracranial survival study; format: in vivo, athymic nude mice; settings: for median survival time: FIG. 5
Procedure: D54MG human glioma cells (0.5×10^6 cells/mouse) were injected into the right frontal cortex of athymic nude mice (10 mice/group). Six days after tumor implantation (Day 0), a single dose of saline or 3.2×10^7 TCID50 AdCD-D314A was injected i.t. Mice then received 5 Gy fractions of radiation treatment on Days 1, 3, and 7 and 5-FC (500 mg/kg i.p. twice daily on Days 0-4, and 7-11) or saline and were subsequently monitored for survival.
D54MG human glioma cells (0.5×10^6 cells/mouse) were injected into the right frontal cortex of athymic nude mice (10 mice/group). Five days after tumor implantation, a single dose of PBS or 3.2×10^7 TCID50 AdbCD-D314A was injected i.t. on Day 5 Mice then received radiation treatment on Days 6, 9 and 13 at 2 or 5 Gy and 5-FC (500 mg/kg i.p. q2d×5/week for 3 weeks) and were subsequently monitored for survival.
D54MG tumors were established intracranially in athymic nude mice as described. Briefly, mice were anesthetized by i.p. administration of ketamine (20 mg/ml) and xylazine (0.3 mg/ml) in saline at 0.07 ml/10 g of body weight. A midline scalp incision was made, and a 0.5-mm burr hole was drilled 1.5-2.0 mm to the right of midline and 1 mm anterior to the coronal suture. D54MG cells were injected stereotactically at 0.5×10^6 cells (1×10^8/ml), using a 250 μl Hamilton syringe with a prepared 30 gauge needle mounted in a Stoelting stereotaxic apparatus. A plastic sleeve surrounding the needle allowed reproducible injections of tumor cells, saline or Ad to a depth of 2.5 mm. The needles were left in place for 2 min to minimize reflux of the tumor cells along the needle track. The scalp wounds were closed with Tissu-Mend glue to avoid scatter dose from metallic wound clips during radiation treatment. The mice were placed on a heating pad in sterile microisolator polycarbonate cages and allowed to awaken from anesthesia. Tumors were allowed to grow for 6 days before the start of treatment (Day 0). Animals were randomly divided into groups receiving different treatments: 3.2×10^7 TCID50 AdbCD-D314A in 10 μl saline; AdbCD-D314A in combination with radiation; AdbCD-D314A plus 5-FC; AdbCD-D314A plus 5-FC in combination with radiation, intratumoral saline followed by intraperitoneal 5-FU and intratumoral saline plus 5-FC and radiation. On the day after AdbCD-D314A injection, mice were treated i.p. with either saline or 5-FC twice daily at 500 mg/kg on Days 0 to 4, and 7 to 11 and monitored daily for survival. Radiation therapy consisted of 15 Gy ^60Co delivered in 5 Gy fractions to the whole brain, on Days 1, 3 and 7. Irradiated mice were immobilized in individual Lucite chambers with their heads positioned in an 8×32 cm collimated field. Animals were shielded with 3 cm of lead placed over the chamber, extending from behind the ears to the tail.

LS174T = test: 5-FU toxicity, MTS assay; format: cell-based; settings: Homo sapiens, 120 h, 5 days
Procedure: Tumor cells (5×10^4) were plated in 96 well plates and allowed to adhere overnight. Cells were then incubated continuously in the presence of increasing concentrations of 5-FU (0-200 μg/ml) and assayed for toxicity using an MTS assay (Promega, Madison Wis.) after 5-days. ICx values were calculated as previously described. U251MG glioma cells were as sensitive to 5-FU as LS174T and WiDR colon carcinoma cells, while D54MG, U87MG and U118MG glioma cells and AsPC-1 pancreatic carcinoma cells were 3-fold less sensitive (Table 2).

BXPC-3 = test: 5-FU cytotoxicity IC50; format: cell-based; settings: Homo sapiens
Procedure: (§1) A two factor analysis of variance with interaction was used to assess the effects of AdCMVLuc and AdCMVLuc+Fab-FGF2 MOI on RLU for each of the cell types individually. Due to the nonconstant variability, the logarithm of RLU was analyzed. This transformation stabilized the variability and normalized the errors. A three-factor with interaction analysis of variance was used to assess the effects of MOI, virus type and day on the number of cells per well. Due to the nonconstant variability, the logarithm of cells per well was analyzed. This transformation stabilized the variability and normalized the errors. Global comparisons were done at the 5% significance level and all pairwise comparisons were done at the 1% significance level. A nonlinear model was used to calculate the 5-FU IC50 for each cell type individually. The nonlinear model is given by: number of cells=trough+(peak-trough)/(1+dose/IC50). To assess the correlation of the number of cells per well with 5-FU production, a simple linear regression was done modeling the logarithm of cells per well as a function of percent 5-FU production for each cell and virus type combination individually. Kaplan-Meier estimates on the difference in time to tumor size doubling was used to assess the difference in tumor growth in animals treated with AdCMVCD or AdCMVCD+Fab′-FGF2 plus 5-FC and radiation.
(§2) To determine the relative sensitivity of several hepatobiliary cell lines to 5-FU, the concentration of 5-FU which inhibited cellular growth by 50% (IC50) was determined. Characterization of this information is particularly relevant to the CD/5-FC toxin gene prodrug system, as 5-FU is the toxic metabolic product of cytosine deaminase enzymatic conversion of 5-FC.

ASPC-1 = test: 5-FU cytotoxicity IC50; format: cell-based; settings: Homo sapiens, ASPC1
Procedure: as §1, §2

SK-ChA-1 = test: 5-FU cytotoxicity IC50; format: cell-based; settings: Homo sapiens
Procedure: as §1, §2

CFPAC-1 = test: 5-FU cytotoxicity IC50; format: cell-based; settings: Homo sapiens
Procedure: as §1, §2

Compound | median survival [1] [days] | Survival 20% [2] | Survival Median [2] | median survival time ([3]; 5-FC) [days] | median survival time ([3]; 5-FC plus radiation) [days] | survival SF50 ([3]; FIG. 19, mock-infected, 5-FC) [days] | survival ([3]; preliminary study, mock-infected, 5-FC) [days] | IC20 (LS174T) [mg/L] | IC50 (LS174T) [mg/L] | IC80 (LS174T) [mg/L] | IC50 (BXPC-3) [mg/L] | IC50 (ASPC-1) [mg/L] | IC50 (SK-ChA-1) [mg/L] | IC50 (CFPAC-1) [mg/L]
Nc1nc(=O)[nH]cc1F [5-FC, 5-fluorocytosine] | 34 | 30 | 29 | 17 | 30 | 23 | 13 | – | – | – | – | – | – | –
O=c1[nH]cc(F)c(=O)[nH]1 [5-FU, 5-fluorouracil] | – | – | – | – | – | – | – | 0.11 (≈ 0.846 µM) | 0.3 (≈ 2.31 µM) | 2.33 (≈ 17.9 µM) | 0.134 | 0.635 | 0.115 | 0.089
